From patent US9328083B2, “2-aminated methylene or 2-esterified methylene tanshinone derivatives, and preparation method and application thereof” (HANGZHOU BENSHENG PHARMACEUTICAL CO., LTD., priority 2011, dated 2016)
Converted amounts (≈) assume the structure as drawn.

What was measured:
[1] = tested on: H9 (acute lymphoblastic leukemia, ALL); assay: MTT growth inhibition of leukemia cells, 72 h; type: cell-based, human; conditions: Homo sapiens, H9, 72 h; for IC50: read-out: IC50; for IC90: read-out: IC90
How it was run: (§1)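 6000 cells/well, RPMI-1640 + 10% FBS; compounds added day 2 (DMSO stock 10 mg/mL, diluted in medium); 72 h, 37 °C, 5% CO2; MTT read-out of viable cells.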

[2] = tested on: NB4 (acute promyelocytic leukemia, AML); assay: MTT growth inhibition of leukemia cells, 72 h; type: cell-based, human; conditions: Homo sapiens, NB4, 72 h; for IC50: read-out: IC50; for IC90: read-out: IC90
How it was run: as §1

[3] = tested on: K562/adr (drug-resistant, chronic myeloid leukemia, CML); assay: MTT growth inhibition of leukemia cells, 72 h; type: cell-based, human; conditions: Homo sapiens, K562/Adr; for IC50: read-out: IC50; for IC90: read-out: IC90
How it was run: as §1

[4] = tested on: Jurkat (acute lymphoblastic leukemia, ALL); assay: MTT growth inhibition of leukemia cells, 72 h; type: cell-based, human; conditions: Homo sapiens, 72 h; for IC50: read-out: IC50; for IC90: read-out: IC90
How it was run: as §1

[5] = tested on: Kasumi-1 (acute myeloid leukemia M2 type, AML-M2); assay: MTT growth inhibition of leukemia cells, 72 h; type: cell-based, human; conditions: Homo sapiens, Kasumi-1, 72 h; for IC50: read-out: IC50; for IC90: read-out: IC90
How it was run: as §1

[6] = tested on: RPMI8226 (multiple myeloma); assay: MTT growth inhibition of multiple myeloma cells, 72 h; type: cell-based, human; conditions: Homo sapiens, RPMI 8226, 72 h; for IC50: read-out: IC50; for IC90: read-out: IC90
How it was run: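 Viability read by MTT after 72 h at 37° C, 5% CO2: compounds from a 10 mg/mL DMSO stock were diluted in medium and added at several concentrations to 6000 RPMI8226 cells per well in 1640 medium plus 10% FBS.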

[7] = tested on: Hep G2 (human liver cancer cell); assay: MTT growth inhibition of human solid tumor cells, 72 h; type: cell-based; conditions: Homo sapiens, HepG2, Hep G2, 72 h; for IC50: read-out: IC50; for IC90: read-out: IC90
How it was run: (§2)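 We plate 4000 cells into each well, culture them 24 h (37° C, 5% CO2, DMEM High Glucose plus 10% fetal bovine serum), add compound dilutions, mix uniformly and measure viable cell concentration.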

PC-3 (prostate cancer) = assay: as above; type: cell-based; conditions: Homo sapiens, PC-3, 72 h; for IC50: read-out: IC50; for IC90: read-out: IC90
How it was run: as §2

[8] = tested on: U87 MG (malignant glioma cell); assay: as above; type: cell-based; conditions: Homo sapiens, U-87 MG, U87-MG, 72 h; for IC50: read-out: IC50; for IC90: read-out: IC90
How it was run: as §2

[9] = tested on: RKO (human colon adenocarcinoma cell); assay: as above; type: cell-based; conditions: Homo sapiens; for IC50: read-out: IC50; for IC90: read-out: IC90
How it was run: as §2

[10] = tested on: Hela (human cervical cancer cell); assay: as above; type: cell-based; conditions: Homo sapiens, HeLa, 72 h; for IC50: read-out: IC50; for IC90: read-out: IC90
How it was run: as §2

[11] = tested on: CaES-17 (esophageal cancer cell); assay: as above; type: cell-based; conditions: Homo sapiens, CaEs17, CaEs-17, 72 h; for IC50: read-out: IC50; for IC90: read-out: IC90
How it was run: as §2

MG63 (osteosarcoma) = assay: as above; type: cell-based; conditions: Homo sapiens, MG-63, 72 h; for IC50: read-out: IC50; for IC90: read-out: IC90
How it was run: as §2

A549 (human lung cancer) = assay: as above; type: cell-based; conditions: Homo sapiens, A549, 72 h; for IC50: read-out: IC50; for IC90: read-out: IC90
How it was run: as §2

[12] = tested on: Becap37 (human breast cancer cell); assay: as above; type: cell-based; conditions: Homo sapiens, Becap-37, 72 h; for IC50: read-out: IC50; for IC90: read-out: IC90
How it was run: as §2

[13] = tested on: MGC 803 (human gastric cancer cell); assay: as above; type: cell-based; conditions: Homo sapiens, MGC-803, 72 h; for IC50: read-out: IC50; for IC90: read-out: IC90
How it was run: as §2

[14] = tested on: CNE (nasopharyngeal carcinoma cell); assay: as above; type: cell-based; conditions: Homo sapiens; for IC50: read-out: IC50; for IC90: read-out: IC90
How it was run: as §2

[15] = tested on: SK-OV-3 (ovarian cancer cell); assay: as above; type: cell-based; conditions: Homo sapiens, SK-OV-3, 72 h; for IC50: read-out: IC50; for IC90: read-out: IC90
How it was run: as §2

[16] = tested on: Hep-2 (laryngeal carcinoma); assay: as above; type: cell-based; conditions: Homo sapiens, HEp-2, 72 h; for IC50: read-out: IC50; for IC90: read-out: IC90
How it was run: as §2

[17] = tested on: PANC-1 (pancreatic cancer); assay: as above; type: cell-based; conditions: Homo sapiens, PANC-1, 72 h; for IC50: read-out: IC50; for IC90: read-out: IC90
How it was run: as §2

Cc1c(CN2CCCN(C)CC2)oc2c1C(=O)C(=O)c1c-2ccc2c(C)cccc12 [BS-TA-B12]
IC50 [1]: 4.11 µg/mL (≈ 10.2 µM)
IC90 [1]: 10.5 µg/mL (≈ 26.1 µM)
IC50 [2]: 0.94 µg/mL (≈ 2.34 µM)
IC90 [2]: 1.9 µg/mL (≈ 4.72 µM)
IC50 [3]: 1.5 µg/mL (≈ 3.73 µM)
IC90 [3]: 2.79 µg/mL (≈ 6.93 µM)
IC50 [4]: 1.78 µg/mL (≈ 4.42 µM)
IC90 [4]: 5.91 µg/mL (≈ 14.7 µM)
IC50 [5]: 0.89 µg/mL (≈ 2.21 µM)
IC90 [5]: 1.9 µg/mL (≈ 4.72 µM)
IC50 [6]: 3.72 µg/mL (≈ 9.24 µM)
IC90 [6]: 7.13 µg/mL (≈ 17.7 µM)
IC50 [7]: 3.8 µg/mL (≈ 9.44 µM)
IC90 [7]: 7.96 µg/mL (≈ 19.8 µM)
IC50 (PC-3 (prostate cancer)): 9.3 µg/mL (≈ 23.1 µM)
IC90 (PC-3 (prostate cancer)): 11.2 µg/mL (≈ 27.8 µM)
IC50 [8]: 1.16 µg/mL (≈ 2.88 µM)
IC90 [8]: 3.4 µg/mL (≈ 8.45 µM)
IC50 [9]: 0.7 µg/mL (≈ 1.74 µM)
IC90 [9]: 5.26 µg/mL (≈ 13.1 µM)
IC50 [10]: 1.46 µg/mL (≈ 3.63 µM)
IC90 [10]: 3.58 µg/mL (≈ 8.89 µM)
IC50 [11]: 0.73 µg/mL (≈ 1.81 µM)
IC90 [11]: 1.97 µg/mL (≈ 4.89 µM)
IC50 (MG63 (osteosarcoma)): 3.37 µg/mL (≈ 8.37 µM)
IC90 (MG63 (osteosarcoma)): 5.49 µg/mL (≈ 13.6 µM)
IC50 (A549 (human lung cancer)): 1.65 µg/mL (≈ 4.1 µM)
IC90 (A549 (human lung cancer)): 4.33 µg/mL (≈ 10.8 µM)
IC50 [12]: 3.34 µg/mL (≈ 8.3 µM)
IC90 [12]: 7.38 µg/mL (≈ 18.3 µM)
IC50 [13]: 2.48 µg/mL (≈ 6.16 µM)
IC90 [13]: 5.05 µg/mL (≈ 12.5 µM)
IC50 [14]: 0.45 µg/mL (≈ 1.12 µM)
IC90 [14]: 0.62 µg/mL (≈ 1.54 µM)
IC50 [15]: 2.53 µg/mL (≈ 6.29 µM)
IC90 [15]: 3.84 µg/mL (≈ 9.54 µM)
IC50 [16]: 4.01 µg/mL (≈ 9.96 µM)
IC90 [16]: 9.08 µg/mL (≈ 22.6 µM)
IC50 [17]: 1.06 µg/mL (≈ 2.63 µM)
IC90 [17]: 4.16 µg/mL (≈ 10.3 µM)

Cc1c(CNCCC(C)(C)C)oc2c1C(=O)C(=O)c1c-2ccc2c(C)cccc12 [BS-TA-B14]
IC50 [1]: 2 µg/mL (≈ 5.13 µM)
IC90 [1]: 11.9 µg/mL (≈ 30.6 µM)
IC50 [2]: 3.59 µg/mL (≈ 9.22 µM)
IC90 [2]: 13.7 µg/mL (≈ 35.2 µM)
IC50 [3]: 0.77 µg/mL (≈ 1.98 µM)
IC90 [3]: 1.82 µg/mL (≈ 4.67 µM)
IC50 [4]: 6.66 µg/mL (≈ 17.1 µM)
IC90 [4]: > 16 µg/mL
IC50 [5]: 0.6 µg/mL (≈ 1.54 µM)
IC90 [5]: 1.99 µg/mL (≈ 5.11 µM)
IC50 [6]: 8 µg/mL (≈ 20.5 µM)
IC90 [6]: > 16 µg/mL
IC50 [7]: 16 µg/mL (≈ 41.1 µM)
IC90 [7]: > 16 µg/mL
IC50 (PC-3 (prostate cancer)): 14.7 µg/mL (≈ 37.6 µM)
IC90 (PC-3 (prostate cancer)): > 16 µg/mL
IC50 [8]: 3.85 µg/mL (≈ 9.88 µM)
IC90 [8]: > 16 µg/mL
IC50 [9]: 3.36 µg/mL (≈ 8.63 µM)
IC90 [9]: > 16 µg/mL
IC50 [10]: 5.28 µg/mL (≈ 13.6 µM)
IC90 [10]: 84.2 µg/mL (≈ 216 µM)
IC50 [11]: > 16 µg/mL
IC90 [11]: > 16 µg/mL
IC50 (MG63 (osteosarcoma)): 4.86 µg/mL (≈ 12.5 µM)
IC90 (MG63 (osteosarcoma)): > 16 µg/mL
IC50 (A549 (human lung cancer)): 1.75 µg/mL (≈ 4.49 µM)
IC90 (A549 (human lung cancer)): 9 µg/mL (≈ 23.1 µM)
IC50 [12]: 4.6 µg/mL (≈ 11.8 µM)
IC90 [12]: > 16 µg/mL
IC50 [13]: 14.4 µg/mL (≈ 37 µM)
IC90 [13]: > 16 µg/mL
IC50 [14]: > 16 µg/mL
IC90 [14]: > 16 µg/mL
IC50 [15]: > 16 µg/mL
IC90 [15]: > 16 µg/mL
IC50 [16]: 14.3 µg/mL (≈ 36.7 µM)
IC90 [16]: 35.2 µg/mL (≈ 90.5 µM)
IC50 [17]: 1.88 µg/mL (≈ 4.83 µM)
IC90 [17]: 6.19 µg/mL (≈ 15.9 µM)
